The results in this text go back to article PMC6934184, “Selective DNA-PKcs inhibition extends the therapeutic index of localized radiotherapy and chemotherapy” (The Journal of Clinical Investigation, 2019).

In this experiment the target is T1, MAPK3 (ERK1) (Homo sapiens, UniProt P27361).
T1 construct: purchased Thermo Fisher Scientific (Life Technologies) SelectScreen
Kind of experiment: SelectScreen Z'LYTE. The class given is biochemical. An outline of the steps: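 SelectScreen broad panel; activity (Z'LYTE, Adapta) plus binding formats. ATP: Km app for CSF1R Z'LYTE; 10 for CAMK1 Adapta. Readout = % per kinase.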

Usually inhibition stands for the share of the control response that was lost under treatment.

T1 sequence (P27361 whole entry): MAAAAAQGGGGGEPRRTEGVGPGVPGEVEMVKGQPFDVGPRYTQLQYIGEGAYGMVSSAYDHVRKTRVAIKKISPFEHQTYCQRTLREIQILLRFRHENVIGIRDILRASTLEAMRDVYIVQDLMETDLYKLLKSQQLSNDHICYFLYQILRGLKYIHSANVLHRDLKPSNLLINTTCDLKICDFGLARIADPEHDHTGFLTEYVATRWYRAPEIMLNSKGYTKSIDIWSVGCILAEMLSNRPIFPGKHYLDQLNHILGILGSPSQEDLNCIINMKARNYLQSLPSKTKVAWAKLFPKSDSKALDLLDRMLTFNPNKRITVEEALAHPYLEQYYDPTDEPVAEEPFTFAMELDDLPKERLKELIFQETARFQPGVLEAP

As for `CN(C(=O)CN1CCOCC1)c1ccc2sc3c(-c4cccc5c(=O)cc(N6CC7CCC(C6)O7)oc45)cccc3c2c1` [NU5455], at 1 µM the inhibition was 9.5%.
